Measurements taken from patent US11939290B2, “Heterocycle-containing amino acid compound and salt thereof, complex, composition, fertilizer and plant growth regulator” (TOKUSHIMA UNIVERSITY, priority 2018, dated 2024).

Experiment: Stability test in acidic aqueous solution (1H NMR residual rate)
Assay type: physicochemical
Settings: for residual rate, lapsed day 0 / residual rate, lapsed day 10 / residual rate, lapsed day 20 / residual rate, lapsed day 27: acidic aqueous solution in heavy water; for residual rate, lapsed day 0: pH 2.0, 0 day (immediately after preparation); for residual rate, lapsed day 10 / residual rate, lapsed day 20 / residual rate, lapsed day 27: pH 2.0, stored at 25° C. sealed, protected from light; for residual rate, lapsed day 10: 10 days; for residual rate, lapsed day 20: 20 days; for residual rate, lapsed day 27 / stability in an acidic aqueous solution compared with derivatives (X), (X′) and (Y): 27 days; for stability in an acidic aqueous solution compared with derivatives (X), (X′) and (Y): acidic aqueous solution pH 2, 25° C.
Experimental: In this stability test, whether acidic aqueous solutions prepared using the derivatives (X), (X′) and (Y), and 2′-deoxymugineic acid (DMA) and a compound having the following structure (hereinafter, referred to as “PDMA”) were stable along with the lapse of time, i.e., whether the derivatives were difficult to decompose was evaluated.
The following test solutions (a), (b) and (c) were prepared using the derivatives (X), (X′) and (Y). Also, the following test solutions (d) and (e) were prepared using DMA and PDMA. The test solution (a) was prepared by dissolving 3 μmol of the substance in 0.5 mL of heavy water. Other test solutions were prepared by dissolving 0.03 mmol of the substance in 0.5 mL of heavy water. The pH of the test solution was 2. • Test solution (a) for Test Example 1: acidic aqueous solution of the derivative (X) • Test solution (b) for Test Example 2: acidic aqueous solution of the derivative (X′) • Test solution (c) for Test Example 3: acidic aqueous solution of the derivative (Y) • Test solution (d) for Referential Example 1: acidic aqueous solution of DMA • Test solution (e) for Referential Example 2: acidic aqueous solution of PDMA
An NMR measuring tube (manufactured by Kanto Chemical Co., Inc., φ5 mm×7 inch) was filled with each of the test solutions (a) to (e), and ^1H NMR measurement was performed. ^1H NMR was measured immediately after (0 day), 10 days after, 20 days after, and 27 days after the preparation of the test solution. The test solutions were stored at room temperature (25° C.) in a sealed state in which they were placed in the NMR measuring tubes, while being protected from light.
Attention was paid to 4.4 ppm (1H, q) for DMA, 4.4 ppm (1H, q) for PDMA, 4.3 ppm (1H, dd) for the derivative (X), 4.3 ppm (1H, dd) for the derivative (X′), and 4.3 ppm (1H, dd) for the derivative (Y) in the resulting ^1H NMR spectrum. […] On the other hand, in the case of the test solutions (d) and (e), peaks derived from decomposition products of DMA and PDMA were detected with the lapse of the storage time. The chemical shifts of the peaks were 4.5 ppm (t, 1H) for DMA and 4.5 ppm (1H, t) for PDMA. Thus, from the integrated values, the residual rate of DMA or PDMA after 10, 20, and 27 days was calculated based on the following calculation formula (see Table 1 and FIG. 1):
(Integrated value of measured compound)/{(integrated value of measured compound)+(integrated value of decomposition product)}×100

| residual rate, lapsed day 0 [%] | residual rate, lapsed day 10 [%] | residual rate, lapsed day 20 [%] | residual rate, lapsed day 27 [%] | stability in an acidic aqueous solution compared with derivatives (X), (X′) and (Y) | SMILES |
| --- | --- | --- | --- | --- | --- |
| 100 | 77.3 | 68.2 | 59.3 | inferior | O=C(O)C(O)CCNC(CCN1CCC1C(=O)O)C(=O)O (stereo not shown) [DMA, 2′-deoxymugineic acid] |
| 100 | 68.4 | 61.7 | 55.2 | inferior | O=C(O)C(O)CCNC(CCN1CCCC1C(=O)O)C(=O)O (stereo not shown) [PDMA] |
